Laboratory results as given in patent US10730884B2, “Substituted indole compound derivatives as dengue viral replication inhibitors” (Janssen Pharmaceuticals, Inc., priority 2016, dated 2020).
Like-named read-outs stand apart in the source and are kept apart here.

Legend:
DENV-2 16681 strain = experiment: DENV-2 antiviral assay (eGFP-labeled virus, Vero cells); type: cell-based, Dengue virus; conditions: for EC50: DENV-2 16681 eGFP, Vero cells, MOI 0.5, 3 days; for SI: SI=CC50/EC50, DENV-2 antiviral assay
Protocol: The antiviral activity of all the compounds of the invention was tested against the DENV-2 16681 strain which was labeled with enhanced green fluorescent protein (eGPF). The culture medium consists of minimal essential medium supplemented with 2% of heat-inactivated fetal calf serum, 0.04% gentamycin (50 mg/mL) and 2 mM of L-glutamine. Vero cells, obtained from ECACC, were suspended in culture medium and 25 μL was added to 384-well plates (2500 cells/well), which already contain the antiviral compounds. Typically, these plates contain a 5-fold serial dilution of 9 dilution steps of the test compound at 200 times the final concentration in 100% DMSO (200 nL). […] Finally, each plate contains wells which are assigned as virus controls (containing cells and virus in the absence of compound), cell controls (containing cells in the absence of virus and compound) and medium controls (containing medium in the absence of cells, virus and compounds). To the wells assigned as medium control, 25 μL of culture medium was added instead of Vero cells. Once the cells were added to the plates, the plates were incubated for 30 minutes at room temperature to allow the cells to distribute evenly within the wells. Next, the plates were incubated in a fully humidified incubator (37° C., 5% CO2) until the next day. Then, DENV-2 strain 16681, labeled with eGFP, was added at a multiplicity of infection (MOI) of 0.5. Therefore, 15 μL of virus suspension was added to all the wells containing test compound and to the wells assigned as virus control. In parallel, 15 μL of culture medium was added to the medium and cell controls. Next, the plates were incubated for 3 days in a fully humidified incubator (37° C., 5% CO2). At the day of the read out, the eGFP fluorescence was measured using an automated fluorescence microscope at 488 nm (blue laser). Using an in-house LIMS system, inhibition dose response curves for each compound were calculated and the half maximal effective concentration (EC50) was determined. Therefore, the percent inhibition (I) for every test concentration is calculated using the following formula: I=100*([…])/(SVC−SCC); ST, SCC and SVC are the amount of eGFP signal in the test compound, cell control and virus control wells, respectively. The EC50 represents the concentration of a compound at which the virus replication is inhibited with 50%, as measured by a 50% reduction of the eGFP fluorescent intensity compared to the virus control. The EC50 is calculated using linear interpolation (Table 1).

Vero cells = conditions: African green monkey
in vitro = conditions: African green monkey
DENV-4 strain H241 = experiment: Tetravalent RT-qPCR assay, serotype 4; type: cell-based, Dengue virus; conditions: for EC50: RT-qPCR serotype 4 H241, Protocol A, Vero cells, day 3; for SI: RT-qPCR serotype 4 H241
Protocol: (§1) The antiviral activity of the compounds of the invention was tested against DENV-1 strain TC974#666 (NCPV), DENV-2 strain 16681, DENV-3 strain H87 (NCPV) and DENV-4 strain H241 (NCPV) in a RT-qPCR assay. Therefore, Vero cells were infected with either DENV-1, or -2, or -3, or -4 in the presence or absence of test compounds. At day 3 post-infection, the cells were lysed and cell lysates were used to prepare cDNA of both a viral target (the 3′UTR of DENV; Table 2) and a cellular reference gene (β-actin, Table 2). Subsequently, a duplex real time PCR was performed on a Lightcycler480 instrument. The generated Cp value is inversely proportional to the amount of RNA expression of these targets. Inhibition of DENV replication by a test compound result in a shift of Cp's for the 3′UTR gene. On the other hand, if a test compound is toxic to the cells, a similar effect on β-actin expression will be observed. The comparative ΔΔCp method is used to calculate EC50, which is based on the relative gene expression of the target gene (3′UTR) normalized with the cellular housekeeping gene (β-actin). In addition, CC50 values are determined based on the Cp values acquired for the housekeeping gene β-actin.
(§2) The culture medium consisted of minimal essential medium supplemented with 2% of heat-inactivated fetal calf serum, 0.04% gentamycin (50 mg/mL) and 2 mM of L-glutamine. Vero cells, obtained from ECACC, were suspended in culture medium and 75 μL/well was added in 96-well plates (10000 cells/well), which already contain the antiviral compounds. […] In addition, each plate contains wells which are assigned as virus controls (containing cells and virus in the absence of compound) and cell controls (containing cells in the absence of virus and compound). Once the cells were added in the plates, the plates were incubated in a fully humidified incubator (37° C., 5% CO2) until the next day. Dengue viruses serotype-1, 2, 3 and 4 were diluted in order to obtain a Cp of ˜22-24 in the assay. Therefore, 25 μL of virus suspension was added to all the wells containing test compound and to the wells assigned as virus control. In parallel, 25 μL of culture medium was added to the cell controls. Next, the plates were incubated for 3 days in a fully humidified incubator (37° C., 5% CO2). After 3 days, the supernatant was removed from the wells and the cells were washed twice with ice-cold PBS (˜100 μL). The cell pellets within the 96-well plates were stored at −80° C. for at least 1 day. Next, RNA was extracted using the Cells-to-CT™ lysis kit, according to the manufacturer's guideline (Life Technologies). The cell lysates can be stored at −80° C. or immediately used in the reverse transcription step.
(§3) In preparation of the reverse transcription step, mix A (table 3A) was prepared and 7.57 μL/well was dispensed in a 96-well plate. After addition of 5 μL of the cell lysates, a five minute denaturation step at 75° C. was performed (table 3B). Afterwards, 7.43 μL of mix B was added (table 3C) and the reverse transcription step was initiated (table 3D) to generate cDNA.
(§4) Finally, a RT-qPCR mix was prepared, mix C (table 4A), and 22.02 μL/well was dispensed in 96-well LightCycler qPCR plates to which 3 μL of cDNA was added and the qPCR was performed according to the conditions in table 4B on a LightCycler 480.
(§5) Using the LightCycler software and an in-house LIMS system, dose response curves for each compound were calculated and the half maximal effective concentration (EC50) and the half maximal cytotoxic concentration (CC50) were determined (Tables 5-8).

DENV-1 strain TC974#666 = experiment: Tetravalent RT-qPCR assay, serotype 1; type: cell-based, Dengue virus; conditions: for EC50: RT-qPCR serotype 1 TC974#666, Protocol A, Vero cells, day 3, read-out: EC50; for SI: RT-qPCR serotype 1 TC974#666
Protocol: as §1, §2, §3, §4, §5

DENV-2 strain 16681 = experiment: Tetravalent RT-qPCR assay, serotype 2; type: cell-based, Dengue virus; conditions: for EC50: RT-qPCR serotype 2 16681, Protocol A, Vero cells, day 3; for SI: RT-qPCR serotype 2 16681
Protocol: as §1, §2, §3, §4, §5

DENV-3 strain H87 = experiment: Tetravalent RT-qPCR assay, serotype 3; type: cell-based, Dengue virus; conditions: for EC50: RT-qPCR serotype 3 H87, Protocol A, Vero cells, day 3, read-out: EC50; for SI: RT-qPCR serotype 3 H87
Protocol: as §1, §2, §3, §4, §5

[1] = Dengue virus, DENV2, Vero, 72 h
[2] = Dengue virus, DENV4, Vero, 72 h
[3] = Dengue virus, DENV1, Vero, 72 h
[4] = Dengue virus, DENV3, Vero, 72 h

Structure (SMILES)	EC50 (DENV-2 16681 strain) [nM]	SI (DENV-2 16681 strain)	CC50 (in vitro) [nM]	EC50 (DENV-4 strain H241; [2]) [nM]	EC50 (DENV-1 strain TC974#666; [3]) [nM]	EC50 (DENV-3 strain H87; [4]) [nM]	further results
COc1cc(NC(C(=O)c2c[nH]c3cc(F)c(C)cc23)c2ccc(F)cc2OC)cc(OCCO)c1 (single isomer, unassigned) [Compound 3B]	250	31	–	–	–	–	CC50 (Vero cells): 8000 nM
COc1cc(NC(C(=O)c2c[nH]c3cc(OC(F)(F)F)c(C)cc23)c2ccc(F)cc2OC)cc(OCCO)c1 (single isomer, unassigned) [Compound 4A]	630	5.4	3400	–	–	–	–
COc1cc(NC(C(=O)c2c[nH]c3c4c(ccc23)OCC4)c2ccc(F)cc2OC)cc(OCCO)c1 (single isomer, unassigned) [Compound 8B]	820	14	–	–	–	–	CC50 (Vero cells): 12000 nM
COc1cc(NC(C(=O)c2c[nH]c3cc(F)ccc23)c2ccc(Cl)cc2OC)cc(OCCOP(=O)(O)O)c1 (racemic) [Compound 13-P, 2-(3-((1-(4-chloro-2-methoxyphenyl)-2-(6-fluoro-1H-indol-3-yl)-2-oxoethyl)amino)-5-methoxyphenoxy)ethyl dihydrogen phosphate]	–	5210	11000	–	–	–	EC50 (DENV-2 16681 strain; [1]): 2.1 nM
COc1cc(NC(C(=O)c2c[nH]c3cc(F)c(C)cc23)c2ccc(Cl)cc2OC)cc(OCCO)c1 (single isomer, unassigned) [Compound 9A]	52	70	3700	–	–	–	–
COc1cc(NC(C(=O)c2c[nH]c3c4c(ccc23)OCC4)c2ccc(Cl)cc2OC)cc(OCCO)c1 (single isomer, unassigned) [Compound 11A]	0.88	7460	6000	270	8.5	28	SI (DENV-4 strain H241): >9.1; SI (DENV-1 strain TC974#666): 1350; EC50 (DENV-2 strain 16681; [1]): 1.9 nM; SI (DENV-2 strain 16681): 2490; SI (DENV-3 strain H87): 359
COc1cc(NC(C(=O)c2c[nH]c3c4c(ccc23)OCC4)c2ccc(F)cc2OC)cc(OCCO)c1 (single isomer, unassigned) [Compound 8A]	4.3	4240	12000	710	20	150	SI (DENV-4 strain H241): 20; SI (DENV-1 strain TC974#666): 560; EC50 (DENV-2 strain 16681; [1]): 8.1 nM; SI (DENV-2 strain 16681): 1530; SI (DENV-3 strain H87): 64
[2H]C(Nc1cc(OC)cc(OCCO)c1)(C(=O)c1c[nH]c2cc(F)ccc12)c1ccc(Cl)cc1OC (single isomer, unassigned) [Compound 13A-D]	0.46	24300	11000	210	5.2	36	SI (DENV-4 strain H241): 24; SI (DENV-1 strain TC974#666): 3070; EC50 (DENV-2 strain 16681; [1]): 0.61 nM; SI (DENV-2 strain 16681): >8520; SI (DENV-3 strain H87): >96
COc1cc(NC(C(=O)c2c[nH]c3cc(OC)c(C)c(F)c23)c2ccc(Cl)cc2OC)cc(OCCO)c1 (single isomer, unassigned) [Compound 12A]	6	1200	5600	–	–	–	–
COc1cc(NC(C(=O)c2c[nH]c3cc(F)ccc23)c2ccc(Cl)cc2OC)cc(OCCOP(=O)(O)O)c1 (single isomer, unassigned) [13A-P^b]	0.48	–	11000	250	4.2	42	EC50 (DENV-2 16681 strain; listed as 13A-P^c): 0.94 nM; EC50 (DENV-4 strain H241; listed as 13A-P^c): 230 nM; EC50 (DENV-1 strain TC974#666; listed as 13A-P^c): 4.4 nM; EC50 (DENV-2 strain 16681): 0.97 nM; EC50 (DENV-2 strain 16681; listed as 13A-P^c): 0.44 nM; EC50 (DENV-3 strain H87; listed as 13A-P^c): 28 nM
CCOc1cc2[nH]cc(C(=O)C(Nc3cc(OC)cc(OCCO)c3)c3ccc(F)cc3OC)c2cc1C (racemic) [Compound 6, 1-(6-ethoxy-5-methyl-1H-indol-3-yl)-2-(4-fluoro-2-methoxyphenyl)-2-((3-(2-hydroxyethoxy)-5-methoxyphenyl)amino)ethanone]	–	3160	5700	–	–	–	EC50 (DENV-2 16681 strain; [1]): 1.8 nM
COc1cc(NC(C(=O)c2c[nH]c3cc(OC(F)(F)F)c(C)cc23)c2ccc(F)cc2OC)cc(OCCO)c1 (racemic) [Compound 4, 2-(4-fluoro-2-methoxyphenyl)-2-((3-(2-hydroxyethoxy)-5-methoxyphenyl)amino)-1-(5-methyl-6-(trifluoromethoxy)-1H-indol-3-yl)ethanone]	–	359	3900	–	–	–	EC50 (DENV-2 16681 strain; [1]): 11 nM
COc1cc(NC(C(=O)c2c[nH]c3cc4c(cc23)CCO4)c2ccc(Cl)cc2OC)cc(OCCO)c1 (single isomer, unassigned) [Compound 10A]	110	44	4900	–	–	–	–
COc1cc(NC(C(=O)c2c[nH]c3cc4c(cc23)CCO4)c2ccc(F)cc2OC)cc(OCCO)c1 (single isomer, unassigned) [Compound 7A]	1	13700	10000	380	7.8	63	SI (DENV-4 strain H241): 12; SI (DENV-1 strain TC974#666): 713; EC50 (DENV-2 strain 16681; [1]): 1.6 nM; SI (DENV-2 strain 16681): 5930; SI (DENV-3 strain H87): 76
